Data on 37 compounds can be found in patent US9169252B2 (BRISTOL-MYERS SQUIBB COMPANY, priority 2014, dated 2015).

Like-named read-outs stand apart in the source and are kept apart here.

Test [1] deals with IRAK4 (Homo sapiens (Human), UniProt Q9NWZ3). Description: IRAK4 Inhibition Assay. The format is biochemical. The following applies: ATP 500 μM, read-out: IRAK4 IC50. The method, boiled down: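 Mobility-shift readout: fluorescent substrate and phosphoproduct resolved electrophoretically on Caliper LabChip 3000 after EDTA quench (35 mM). Enzyme reaction of IRAK4, substrates and test compound ran 60 min at room temperature.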

For test [2], the system named is TLR2 induced IL-6 in peripheral blood mononuclear cells (PBMCs). Description: PBMC TLR2 Induced IL-6 Assay. The format is cell-based, human. The note with it: IL-6 by ELISA; for IC50: read-out: Cell IC50; for EC50: read-out: Cell EC50. In a few lines:
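Lipoteichoic acid at 10 µg/ml served as TLR2 stimulus for 5 hours, following a 30-minute compound pretreatment at 37° C. Cells were Ficoll-isolated human PBMCs, 250000 cells/well, cultured in RPMI plus 10% heat-inactivated FCS.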

Where [3] appears, read: Homo sapiens, PBMC, PBMC TLR2 Induced IL-6 Assay, lipoteichoic acid stimulation.
Where [4] appears, read: Homo sapiens, PBMC, human PBMCs, lipoteichoic acid stimulated.

IRAK4, sequence (Q9NWZ3 whole entry, species assumed): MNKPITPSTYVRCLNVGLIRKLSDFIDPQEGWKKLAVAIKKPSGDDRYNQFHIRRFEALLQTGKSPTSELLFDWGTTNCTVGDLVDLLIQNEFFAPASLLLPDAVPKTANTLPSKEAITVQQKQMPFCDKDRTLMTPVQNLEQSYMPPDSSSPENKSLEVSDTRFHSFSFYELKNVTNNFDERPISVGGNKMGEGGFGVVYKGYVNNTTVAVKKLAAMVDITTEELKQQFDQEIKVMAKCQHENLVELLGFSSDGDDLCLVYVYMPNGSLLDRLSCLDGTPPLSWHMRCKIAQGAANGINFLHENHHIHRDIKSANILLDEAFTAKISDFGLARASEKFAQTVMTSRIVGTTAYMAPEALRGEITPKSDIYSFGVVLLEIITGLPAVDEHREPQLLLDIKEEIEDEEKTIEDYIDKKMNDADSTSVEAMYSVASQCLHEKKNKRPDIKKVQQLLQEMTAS

As for `CCCn1cc(Nc2cc(-n3ccc4cc(C#N)cnc43)ncc2C(=O)NC[C@@H](F)C(C)(C)O)cn1` [Example 383], the IC50 (in general, the concentration that gives 50% inhibition) was 1.4 nM in test [1] (IRAK4 Inhibition Assay) and 113 nM in test [2] (setting [3]).
On the same counts, the results for `CC(C)(O)[C@H](F)CNC(=O)c1cnc(-n2ncc3cc(F)cnc32)cc1Nc1cnn(CC(F)F)c1` [Example 384] are 2.3 nM and 24 nM.
On the same counts, the results for `CC(C)(O)[C@H](F)CNC(=O)c1cnc(-n2ncc3cc(C#N)cnc32)cc1Nc1cnn(S(C)(=O)=O)c1` [Example 385] are 0.9 nM and 40 nM.
Take `CCNC(=O)n1cc(Nc2cc(-n3ncc4cc(C#N)cnc43)ncc2C(=O)NC[C@@H](F)C(C)(C)O)cn1` [Example 386]: in test [1] (IRAK4 Inhibition Assay), the half-maximal inhibitory concentration (IC50) was found to be 1.5 nM. Also, in test [2] (setting [3]), the EC50 – broadly, the concentration giving half of the maximal effect – was 79 nM and the IC50 was 1080 nM.
As to `CC(C)NC(=O)c1cnc(-n2ncc3cc(C#N)cnc32)cc1Nc1cnn(CC(F)F)c1` [Example 388], the IC50 is 11.2 nM in test [1] (IRAK4 Inhibition Assay) and 245 nM in test [2] (setting [3]).
On the same counts, the results for `CCCNC(=O)c1cnc(-n2ncc3cc(C#N)cnc32)cc1Nc1cnn(CC(F)F)c1` [Example 389] are 4 nM and 241 nM.
On the same counts, the results for `CC(C)(C)NC(=O)c1cnc(-n2ncc3cc(C#N)cnc32)cc1Nc1cnn(CC(F)F)c1` [Example 390] are 17 nM and 199 nM.
On the same counts, the results for `CC(C)CNC(=O)c1cnc(-n2ncc3cc(C#N)cnc32)cc1Nc1cnn(CC(F)F)c1` [Example 391] are 6.2 nM and 241 nM.
For `CCOCCNC(=O)c1cnc(-n2ncc3cc(C#N)cnc32)cc1Nc1cnn(CC(F)F)c1` [Example 392], the IC50 in test [1] (IRAK4 Inhibition Assay) was 7.1 nM; in test [2] (setting [3]) it was 16 nM.
As for `CCNC(=O)c1cnc(-n2ncc3cc(C#N)cnc32)cc1Nc1cnn(CC(F)F)c1` [Example 393], the IC50 was found to be 3.5 nM in test [1] (IRAK4 Inhibition Assay) and 250 nM in test [2] (setting [3]).
For the compound `CC(C)(F)[C@H](F)CNC(=O)c1cnc(-n2ncc3cc(C#N)cnc32)cc1Nc1cnn(CC(F)F)c1` [Example 395], the IC50 came to 2.2 nM in test [1] (IRAK4 0.6 nM) and 85 nM in test [2] (setting [4]).
For `CC(C)(O)[C@H]1CC[C@H](NC(=O)c2cnc(-n3ncc4cc(C#N)cnc43)cc2Nc2cnn(CC(F)F)c2)CC1` [Example 396] the same measures were 8.6 nM and 157 nM.
On the same counts, the results for `CC(C)(O)C(F)(F)CNC(=O)c1cnc(-n2ncc3cc(C#N)cnc32)cc1Nc1cnn(CC(F)F)c1` [Example 397] are 6.6 nM and 210 nM.
On the same counts, the results for `Cn1cc(Nc2cc(-n3ncc4cc(Cl)cnc43)ncc2C(=O)NC[C@@H](F)C(C)(C)O)cn1` [Example 398] are 4.9 nM and 277 nM.
Regarding `Cn1cc(Nc2cc(-n3ccc4cc(C#N)cnc43)ncc2C(=O)NC[C@@H](F)C(C)(C)O)cn1` [Example 399], the IC50 in test [1] (IRAK4 0.6 nM) was 1.3 nM; in test [2] (setting [4]) it was 24 nM.
For `CC(C)(O)[C@H](F)CNC(=O)c1cnc(-n2cnc3cc(Cl)cnc32)cc1Nc1cnn(C(F)F)c1` [Example 400] the same measures were 7.8 nM and 156 nM.
As to `CC(C)(O)[C@H](F)CNC(=O)c1cnc(-n2cnc3cc(C#N)cnc32)cc1Nc1cnn(C(F)F)c1` [Example 401], the figures for the IC50 in test [1] (IRAK4 0.6 nM) and in test [2] (setting [4]) were 5.7 nM and 485 nM, respectively.
On the same counts, the results for `CC(C)(F)[C@H](F)CNC(=O)c1cnc(-n2cnc3cc(Cl)cnc32)cc1Nc1cnn(CC(F)F)c1` [Example 402] are 2.5 nM and 412 nM.
As for `CC(C)(F)[C@H](F)CNC(=O)c1cnc(-n2cnc3cc(C#N)cnc32)cc1Nc1cnn(CC(F)F)c1` [Example 403], the IC50 in test [1] (IRAK4 0.6 nM) was 2.5 nM; in test [2] (setting [4]), 147 nM.
On the same counts, the results for `CC(C)(O)[C@H](F)CNC(=O)c1cnc(-n2ncc3cc(C#N)cnc32)cc1Nc1cc(C2CC2)n[nH]1` [Example 404] are 1.1 nM and 164 nM.
Consider `Cc1cc(Nc2cc(-n3ncc4cc(C#N)cnc43)ncc2C(=O)NC[C@@H](F)C(C)(C)O)[nH]n1` [Example 405], for which the IC50 came to 6.2 nM in test [1] (IRAK4 0.6 nM) and 561 nM in test [2] (setting [4]).
For `CC(C)c1cc(Nc2cc(-n3ncc4cc(C#N)cnc43)ncc2C(=O)NC[C@@H](F)C(C)(C)O)[nH]n1` [Example 406] the same measures were 4.8 nM and 66 nM.
For `CC(C)(O)[C@H](F)CNC(=O)c1cnc(-n2ncc3cc(C#N)cnc32)cc1Nc1ccn(CC(F)F)n1` [Example 407] the same measures were 3.1 nM and 287 nM.
For `CC(C)(O)[C@H](F)CNC(=O)c1cnc(-n2ncc3cc(C#N)cnc32)cc1Nc1ccn(CC(F)(F)F)n1` [Example 408] the same measures were 1.8 nM and 73 nM.
As for `Cn1nccc1Nc1cc(-n2ncc3cc(C#N)cnc32)ncc1C(=O)NC[C@@H](F)C(C)(C)O` [Example 409], the 50% inhibitory concentration (IC50) in test [1] (IRAK4 0.6 nM) worked out at 17.5 nM. Moreover, in test [2] (setting [4]), the EC50 was 463 nM.
For `CC(C)(O)[C@H](F)CNC(=O)c1cnc(-n2ncc3cc(C#N)cnc32)cc1Nc1cnn(-c2ncccn2)c1` [Example 410] the same measures were 1.5 nM and 92 nM.
On the same counts, the results for `CC(C)(O)[C@H](F)CNC(=O)c1cnc(-n2ncc3cc(C#N)cnc32)cc1Nc1cnn(-c2ncc(F)cn2)c1` [Example 411] are 1.6 nM and 51 nM.
For the compound `CC(C)(O)[C@H](F)CNC(=O)c1cnc(-n2ncc3cc(C#N)cnc32)cc1Nc1cc(-c2ccccc2)n[nH]1` [Example 412], the IC50 in test [1] (IRAK4 0.6 nM) was 3.6 nM; in test [2] (setting [4]) it was 53 nM.
On the same counts, the results for `Cc1cc(Nc2cc(-n3ncc4cc(C#N)cnc43)ncc2C(=O)NC[C@@H](F)C(C)(C)O)n(C)n1` [Example 413] are 7 nM and 382 nM.
For the compound `CC(C)Nc1cc(-n2ccc3cc(C#N)cnc32)ncc1C(=O)NC12CCC(O)(CC1)C2` [Example 415], in test [1] (IRAK4 0.6 nM), the half-inhibitory concentration (IC50) is 14.8 nM. In test [2] (setting [4]), the EC50 came to 286 nM.
For `CC(C)(O)[C@H](F)CNC(=O)c1cnc(-n2ccc3cc(C#N)cnc32)cc1Nc1cccc(S(N)(=O)=O)c1` [Example 416] the same measures were 1.9 nM and 58 nM.
On to `CC(C)Nc1cc(-n2ccc3cc(C#N)cnc32)ncc1C(=O)NCCCOC(C)(C)C` [Example 417], for which the concentration for half-maximal inhibition (IC50) in test [1] (IRAK4 0.6 nM) came out at 5.5 nM. Moreover, in test [2] (setting [4]), the EC50 was 171 nM.
On the same counts, the results for `COc1cccc(Nc2cc(-n3ccc4cc(C#N)cnc43)ncc2C(=O)NC[C@@H](F)C(C)(C)O)c1` [Example 418] are 4.4 nM and 65 nM.
On the same counts, the results for `CC(C)(O)/C=C/Nc1cc(-n2ccc3cc(C#N)cnc32)ncc1C(=O)NC[C@@H](F)C(C)(C)O` [Example 419] are 4.8 nM and 107 nM.
Turning to `CC(C)Nc1cc(-n2ccc3cc(C#N)cnc32)ncc1C(=O)N[C@H]1CC[C@@](F)(c2nccn2C)CC1` [Example 420], the IC50 in test [1] (IRAK4 0.6 nM) amounted to 4.4 nM. In addition, the concentration for a half-maximal effect (EC50) in test [2] (setting [4]) was determined as 186 nM.
Regarding `CC(C)(O)[C@H](F)CNC(=O)c1cnc(-n2ccc3cc(C#N)cnc32)cc1Nc1ccc2ncoc2c1` [Example 421], the concentration for half-maximal inhibition (IC50) amounted to 1.9 nM in test [1] (IRAK4 0.6 nM) and 167 nM in test [2] (setting [4]).
Consider `CC(O)CCNc1cc(-n2ccc3cc(C#N)cnc32)ncc1C(=O)NC[C@@H](F)C(C)(C)O` (stereo partly drawn) [Example 422], for which, in test [1] (IRAK4 0.6 nM), the IC50 stood at 2.3 nM. Moreover, the 50% effective concentration (EC50) in test [2] (human PBMCs, lipoteichoic acid stimulated) was found to be 4 nM.
